Literature values as cited in US20240261315A1 (Omikron Italia S.r.l., priority 2021, published 2024).

What was measured:
glaucomatous patients = conditions: cited from earlier work
[1] = system: patients with controlled IOP; conditions: oral citicoline, patients with IOP <18 mmHg on b-blockers; cited from earlier work
[2] = in five days; cited from earlier work

In the case of C[N+](C)(C)CCOP(=O)([O-])OP(=O)(O)OC[C@H]1O[C@@H](n2ccc(N)nc2=O)C(O)C1O (some centres unmarked) [Citicoline, citidin-5′-difosfocholine], the “increase of the width of P50-N95 tract of pERG” value (glaucomatous patients; citicoline in oral solution) is given as 100%, the “loss of nervous fibres at the retinal layer through GDX” value (glaucomatous patients; oral solution 500 mg/die, vs antihypertensive therapy only) is given as “slows down the loss of nervous fibres at the retinal layer” and the “latency time of VEP” value [1] is given as “decrease in latency time of VEP”. The “width of PERG signal” value [1] was “improvement in the width of PERG signal” and the “elimination of the marked products” value [2] was 16%.
